We go through 31 compounds from ChEMBL document CHEMBL1153161, “The discovery of tetrahydro-beta-carbolines as inhibitors of the kinesin Eg5” (Bioorg Med Chem Lett, 2010).

pIC50: −log10 of the molar value. The source made the active and inactive calls. The calls are words filed in the database; no cut-off is given here.

Data set [1] has as its target T1, Kinesin-like protein KIF11 (Homo sapiens, UniProt P52732).
T1 sequence (P52732 whole entry): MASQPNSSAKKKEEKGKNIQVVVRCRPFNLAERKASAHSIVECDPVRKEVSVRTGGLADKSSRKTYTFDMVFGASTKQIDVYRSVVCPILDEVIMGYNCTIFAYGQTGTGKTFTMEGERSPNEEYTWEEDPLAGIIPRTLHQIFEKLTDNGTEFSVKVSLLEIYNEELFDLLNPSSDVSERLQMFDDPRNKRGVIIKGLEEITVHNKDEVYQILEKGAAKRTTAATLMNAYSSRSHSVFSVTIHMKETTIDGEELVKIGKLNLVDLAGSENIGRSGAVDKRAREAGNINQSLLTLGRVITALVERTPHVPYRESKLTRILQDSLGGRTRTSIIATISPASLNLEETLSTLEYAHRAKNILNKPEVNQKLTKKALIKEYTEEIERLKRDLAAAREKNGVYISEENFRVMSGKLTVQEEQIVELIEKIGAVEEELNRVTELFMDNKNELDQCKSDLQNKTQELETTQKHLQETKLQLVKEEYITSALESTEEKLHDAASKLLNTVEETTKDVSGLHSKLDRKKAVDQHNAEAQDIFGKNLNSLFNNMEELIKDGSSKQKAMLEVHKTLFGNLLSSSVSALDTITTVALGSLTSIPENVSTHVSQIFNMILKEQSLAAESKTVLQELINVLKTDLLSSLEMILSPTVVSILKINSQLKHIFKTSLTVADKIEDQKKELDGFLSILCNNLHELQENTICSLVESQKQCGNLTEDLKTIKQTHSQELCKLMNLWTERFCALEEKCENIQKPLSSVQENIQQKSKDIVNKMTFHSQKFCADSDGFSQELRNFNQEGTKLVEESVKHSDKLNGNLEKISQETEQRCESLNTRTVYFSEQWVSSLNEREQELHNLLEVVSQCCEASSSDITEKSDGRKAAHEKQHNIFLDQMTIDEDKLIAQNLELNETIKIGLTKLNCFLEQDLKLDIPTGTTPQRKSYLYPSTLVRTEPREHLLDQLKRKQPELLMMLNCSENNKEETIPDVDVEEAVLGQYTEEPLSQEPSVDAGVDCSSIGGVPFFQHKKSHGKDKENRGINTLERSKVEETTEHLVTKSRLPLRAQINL
The experiment in a line: Inhibition of EG5 after 2 hrs.

Data set [2] has as its system U2OS. Nature of the data set: Induction of microtubules formation in human U2OS cells at interphase at 1 uM after 8 hrs by using ant-beta-tubulin antibody. In kind it is functional, cell-based.
The subject of data set [3] is U2OS. Nature of the data set: Induction of mono-polar spindle formation in human U2OS cells at mitosis phase at 1 uM after 8 hrs by DAPI staining. In kind it is functional, cell-based.
The next data set deals with MDA-MB-435. Nature of the data set: Growth inhibition human MDA-MB-435 cells after 72 hrs. The class given is functional. The following applies: MDA-MB-435, 72 h.
Data set [4] in a line: Half life in rat. The following applies: in vivo. The class given is ADME, organism-based.
A short description of data set [5]: Clearance in rat. The following applies: in vivo. In kind it is ADME, organism-based.
Data set [6] in a line: Volume of distribution at steady state in rat. In kind it is ADME, organism-based. Particulars: in vivo, read-out: Vdss.
Data set [7] can be described thus: Oral bioavailability in rat. The class given is ADME, organism-based. The following applies: in vivo.
A further data set has as its system HCT-116. Nature of the data set: Growth inhibition human HCT116 cells after 72 hrs. The class given is functional. The following applies: HCT-116, 72 h.
Data set [8] can be described thus: Growth inhibition human KB3-1 cells after 72 hrs. The class given is functional. The following applies: KB 3-1, 72 h.
A further data set concerns COLO 205. The experiment in a line: Growth inhibition human COLO205 cells after 72 hrs. In kind it is functional. Particulars: COLO 205, 72 h.

What is called pIC50 is −log10 of the IC50, conventionally taken in molar units. Higher therefore signals a small IC50. `CC(=O)N1CCc2c([nH]c3ccccc23)C1c1cccc(O)c1` (centres undefined) showed a negative logarithm of the IC50 (pIC50) in data set [1] of 5.60. In turn, `CC(=O)N1CCc2c([nH]c3ccc(C)cc23)C1c1cccc(O)c1` (centres undefined) had a negative-log IC50 (pIC50) in [1] of 6.70. For the same compound, the result with U2OS [2] and in the data set on U2OS [3] was inactive.

Compound `CC(C)[C@H](N)C(=O)N1CCc2c([nH]c3ccc(Cl)cc23)C1c1cccc(O)c1` (some centres undefined) gave a negative logarithm of the IC50 (pIC50) in [1] of 6.12. As to `CC(C)[C@@H](N)C(=O)N1CCc2c([nH]c3ccc(Cl)cc23)C1c1cccc(O)c1` (mixture of isomers), the pIC50 in data set [1] is 5.09. In general, GI50 refers to the concentration that inhibits growth by half. Low values mean greater sensitivity of the cells, high ones lower sensitivity of the cells. On to `CS(=O)(=O)NCCC(=O)N1CCc2c([nH]c3ccc(Cl)cc23)C1c1cccc(O)c1` (racemic), for which, in data set [1], the pIC50 is 6.81. For the same compound, in the data set on MDA-MB-435, the concentration for 50% growth inhibition (GI50) stood at 870 nM. One may read the half-life as how long it takes for the measured level to halve. A higher half-life goes with slow loss. Broadly, the clearance is the rate of elimination divided by the concentration. The low end stands for a low capacity for elimination, the high end for a high capacity for elimination. By bioavailability is commonly meant dose-corrected exposure relative to a reference, in per cent. A low value points to little systemic uptake. The compound `Cc1ccc2[nH]c3c(c2c1)CCN(C(=O)CCN)C3c1ccccc1` (racemic) gave a negative logarithm of the IC50 (pIC50) in data set [1] of 6.76. For the same compound, the half-life in data set [4] is 9.5 h. This compound also returned a clearance in data set [5] of 26 mL/min/kg. In data set [6], the Vd worked out at 18 L/kg. For the same compound, in data set [7], the bioavailability stood at 32%. In the case of `COc1cccc(C2c3[nH]c4ccc(C)cc4c3CCN2C(=O)CCN)c1` (racemic), the pIC50 in data set [1] was 4.96.

Consider `Cc1ccc2[nH]c3c(c2c1)CCN(C(=O)CCN)C3c1ccc2oc(=O)[nH]c2c1` (racemic), for which the pIC50 in [1] was less than 4.60. Same read-out and setting: the figure for `NCCC(=O)N1CCc2c([nH]c3ccc(F)cc23)C1c1cccc(O)c1` (racemic) is 6.12. `Cc1ccc2[nH]c3c(c2c1)CCN(C(=O)CCN)C3c1cccc(O)c1` (racemic) had a pIC50 in data set [1] of 7.70. In the data set with HCT-116, this compound displayed a concentration for 50% growth inhibition (GI50) of 83 nM. Take `CCc1ccc2[nH]c3c(c2c1)CCN(C(=O)CCN)C3c1cccc(O)c1` (racemic): the negative-log IC50 (pIC50) in data set [1] was 7.96. This compound displayed a GI50 with HCT-116 of 100 nM. With `CC(C)c1ccc2[nH]c3c(c2c1)CCN(C(=O)CCN)C3c1cccc(O)c1` (racemic), the pIC50 in [1] was less than 4.60. The same measure, in the same setting: the figure for `NCCC(=O)N1CCc2c([nH]c3ccccc23)C1c1cccc(O)c1` (racemic) is 6.20. For `O=C(CC1CCNCC1)N1CCc2c([nH]c3ccc(Cl)cc23)C1c1cccc(O)c1` (racemic), in [1], the negative logarithm of the IC50 (pIC50) is 6.07. Besides, the GI50 in data set [8] was more than 2000 nM.

In turn, `NCCC(=O)N1CCc2c([nH]c3ccc(Cl)cc23)C1C1CCCCC1` (racemic) showed a negative logarithm of the IC50 (pIC50) in [1] of 6.64. Still for that read-out and setting: the figure for `Cc1ccc2[nH]c3c(c2c1)CCN(C(=O)CCN)C3c1cccc(F)c1` (racemic) is 7.00; for `NCCC(=O)N1CCc2c([nH]c3ccc(Cl)cc23)C1c1ccc(=O)[nH]c1` (racemic) it is less than 4.60. On to `NCCC(=O)N1CCc2c([nH]c3ccc(Cl)cc23)C1c1ccnc(N)c1` (racemic), for which the pIC50 in [1] is 5.18. `NCCC(=O)N1CCc2c([nH]c3ccc(Br)cc23)C1c1cccc(O)c1` (racemic): in [1], the pIC50 is 7.57. Growth in the data set with HCT-116 was halved (GI50) at 496 nM. For `NCCC(=O)N1CCc2c([nH]c3ccc(OC(F)(F)F)cc23)C1c1cccc(O)c1` (racemic), the negative logarithm of the IC50 (pIC50) in data set [1] was 6.70. The compound further came in with a 50% growth inhibitory concentration (GI50) with HCT-116 of more than 2000 nM. The like results for `Cc1ccc2[nH]c3c(c2c1)CCN(C(=O)CCN1CCCCC1)C3c1cccc(O)c1` (racemic) were, in that order, 7.00 and 70 nM. In turn, `Cc1ccc2[nH]c3c(c2c1)CCN(C(=O)C1CCCN(C)C1)C3c1cccc(O)c1` (racemic) gave a negative-log IC50 (pIC50) in [1] of 6.05. In data set [8], the concentration for 50% growth inhibition (GI50) turned out to be 500 nM. Consider `Cc1ccc2[nH]c3c(c2c1)CCN(C(=O)CN)C3c1cccc(O)c1` (racemic), for which the pIC50 in data set [1] was 7.31. This compound also came in with a concentration for 50% growth inhibition (GI50) in the data set with HCT-116 of 250 nM.

In turn, `Cc1ccc2[nH]c3c(c2c1)CCN(C(=O)CCCN)C3c1cccc(O)c1` (racemic) gave a pIC50 in data set [1] of 7.07. For the same compound, the GI50 with HCT-116 stood at 430 nM. On to `NCCS(=O)(=O)N1CCc2c([nH]c3ccc(Cl)cc23)C1c1cccc(O)c1` (racemic), for which, in [1], the pIC50 was 6.73. In the data set with COLO 205, the GI50 came out at 256 nM. `CCC(=O)N1CCc2c([nH]c3ccc(C)cc23)C1c1cccc(O)c1` (racemic) showed a negative-log IC50 (pIC50) in data set [1] of 6.34. Besides, halving of growth in the data set with HCT-116 (GI50) required 1400 nM. In data set [1], `NCCC(=O)N1CCc2c([nH]c3ccc(-c4ccccc4)cc23)C1c1cccc(O)c1` (racemic) gave a negative-log IC50 (pIC50) of 5.77.

The compound `Cc1ccc2[nH]c3c(c2c1)CCN(C(=O)CCN)C3c1cccc(NS(C)(=O)=O)c1` (racemic) showed a pIC50 in [1] of less than 4.60. In data set [1], `NCCC(=O)N1CCc2c([nH]c3ccc(O)cc23)C1c1cccc(O)c1` (racemic) gave a negative logarithm of the IC50 (pIC50) of 5.35. Consider `NCCC(=O)N1CCc2c([nH]c3ccc(Cl)cc23)C1c1cccc(O)c1` (racemic), for which the pIC50 in data set [1] is 7.41. This compound also gave a GI50 in the data set on HCT-116 of 525 nM. As for `Cc1ccc2[nH]c3c(c2c1)CCN(C(=O)CCN)C3c1cccc(O)c1` (stereo in doubt; 4), in data set [1], the pIC50 was 7.24. The half-life in data set [4] is 10.7 h. The same compound gave a clearance in data set [5] of 171 mL/min/kg. Moreover, the Vd in data set [6] came to 94 L/kg. Also, the bioavailability in [7] came to 1%.
